The values below come from paper PMC6273342, “Cytotoxic Alkaloids from the Stem of Xylopia laevigata” (Molecules, 2016).

Like-named read-outs stand apart in the source and are kept apart here.

The IC50 is the concentration at which inhibition is half-maximal.

In data set [1] the test system is peripheral blood mononuclear cells (PBMCs). Put plainly: Alamar Blue cytotoxicity assay, non-tumor PBMCs. It counts as cell-based. The note with it: Homo sapiens, PBMC, 72 h incubation, ConA-stimulated PBMCs. As for the experimental part:
Heparinized blood was collected from 20- to 35-year-old, healthy non-smokers who had not taken any drugs for at least 15 days prior to sampling, and the peripheral blood mononuclear cells (PBMCs) were isolated using a Ficoll density gradient in a Ficoll-Paque Plus (GE Healthcare Bio-Sciences AB, Uppsala, Sweden). PBMCs were washed and resuspended at a concentration of 0.3 × 10^6 cells/mL in RPMI 1640 medium with 20% fetal bovine serum, 2 mM L-glutamine and 50 μg/mL gentamycin at 37 °C with 5% CO2. Concanavalin A (ConA, Sigma-Aldrich Co.) was used as a mitogen to trigger cell division in T-lymphocytes. ConA (10 μg/mL) was added at the beginning of culture, and the cells were treated with the test compounds after 24 h. Cell viability was examined using a trypan blue exclusion assay for all experiments. Over 90% of the cells were viable at the beginning of the culture. The Research Ethics Committee of the Oswaldo Cruz Foundation (Salvador, Bahia, Brazil) approved the experimental protocol (#031019/2013). All participants signed a written informed consent to participate in the study.
On the technique in general: Resazurin is reduced to fluorescent resorufin, in cell work by metabolically active cells.

The next data set concerns B16-F10 (mouse melanoma). Kind of data set: Alamar Blue cytotoxicity assay, B16-F10. It counts as cell-based. To be noted: 72 h incubation. The text has this: (§1) Camargo, São Paulo, Brazil.
Data set [2] concerns K562 (human chronic myelocytic leukemia). Kind of data set: Alamar Blue cytotoxicity assay, K562. Format: cell-based. The note with it: 72 h incubation.
From the text: as §1

Details of data set [3]: method as in PMID 22491683. To be noted: previously studied; cited from earlier work.
Data set [4] relates to HepG2 (human hepatocellular carcinoma). Kind of data set: Alamar Blue cytotoxicity assay, HepG2. Format: cell-based. The note with it: 72 h incubation.
From the text: as §1

Data set [5] deals with tumor cell lines B16-F10, HepG2, K562 and HL-60. Kind of data set: Alamar Blue cytotoxicity assay, summary over the tumor cell lines tested. To be noted: 72 h, read-out: IC50 in at least one of the tumor cell lines tested.
Protocol: (§3) B16-F10, HepG2, K562 and HL-60 tumor cell lines were kindly donated by Hospital A.C. […] Cells were maintained in RPMI 1640 medium (Gibco-BRL, Gaithersburg, MD, USA) with 10% fetal bovine serum (Cultilab, Campinas, Brazil), 2 mM L-glutamine (Vetec Química Fina, Duque de Caxias, Brazil) and 50 μg/mL gentamycin (Novafarma, Anápolis, Brazil). Adherent cells were collected by treatment with 0.25% trypsin-EDTA solution (Gibco-BRL). All cell lines were cultured in flasks at 37 °C in 5% CO2 and sub-cultured every 3–4 days to maintain exponential growth. All cell lines were tested for mycoplasma using a Mycoplasma Stain Kit (Sigma-Aldrich, St. Louis, MO, USA) to confirm that the cells were free from contamination.
(§4) Cell viability was quantified using the Alamar Blue assay, according to Ahmed et al. [23]. Cells were placed in 96-well plates for all experiments (0.7 × 10^5 cells/mL for adherent cells or 0.3 × 10^6 cells/mL for suspended cells in 100 μL of medium). After 24 h, the alkaloids (in a range of eight different concentrations varying from 0.19 to 25 μg/mL) were dissolved in dimethyl sulfoxide (DMSO, Sigma-Aldrich Co.), and the solution was added to each well and incubated for 72 h. […] Negative controls received the vehicle that was used for diluting the alkaloids (0.5% DMSO). Four (for cell lines) or 24 h (for PBMCs) before the end of incubation, 20 μL of a stock solution (0.312 mg/mL) of the Alamar Blue (resazurin, Sigma-Aldrich Co.) was added to each well. The absorbance at 570 nm and 600 nm was measured using a SpectraMax 190 Microplate Reader (Molecular Devices, Sunnyvale, CA, USA), and the drug effect was quantified as the percentage of control absorbance.
Data set [6] concerns HL-60 (human promyelocytic leukemia). Kind of data set: Alamar Blue cytotoxicity assay, HL-60. To be noted: for IC50: Homo sapiens, HL-60, Alamar Blue, 72 h incubation, read-out: IC50 HL60; for selectivity index (SI): SI = IC50[PBMC]/IC50[HL-60]. Format: cell-based.
Protocol: as §3, §4
A further data set is described as follows: in vitro. The note with it: mouse (B16-F10); human (HepG2, K562, HL-60).
Data set [7] relates to HepG2 cells. Kind of data set: Annexin assay (phosphatidylserine externalization, flow cytometry), HepG2. To be noted: HepG2, 24 h; p < 0.05; without affecting the cell membrane integrity. Format: cell-based, human. The procedure: (§2) The following set of experiments was performed to investigate the mechanisms involved in the cytotoxic action of the alkaloids lanuginosine and (+)-xylopine. In all experiments, 2 mL of a HepG2 cell solution (0.7 × 10^5 cells/mL) was placed in 24-well plates and incubated overnight to allow the cells to adhere to the plate surface. The cells were then treated for 24 h with the alkaloids lanuginosine (10 and 20 μg/mL) and (+)-xylopine (5 and 10 μg/mL). The negative control was treated with the vehicle (0.2% DMSO) used for diluting the alkaloids. […] Cell viability was assessed for all experiments using a Trypan Blue exclusion assay.
Phosphatidylserine externalization was analyzed by flow cytometry. A FITC annexin V apoptosis detection kit (BD Biosciences, San Jose, CA, USA) was used to determine cell viability (viable, early apoptotic, late apoptotic and necrotic cells). Cells were washed twice with saline and then resuspended in 100 μL of binding buffer with 5 μL of propidium iodide and 5 μL of FITC annexin V. The cells were gently mixed on a vortexer and incubated for 15 min at room temperature (20–25 °C) in the dark. Afterwards, 400 μL of binding buffer was added to each tube and the cells were analyzed by flow cytometry on a BD LSRFortessa cytometer using BD FACSDiva Software (BD Biosciences) and Flowjo Software 10 (Flowjo LCC, Ashland, OR, USA). Ten thousand events were evaluated per experiment and cellular debris was omitted from the analysis.
In general terms: Flow cytometry measures light scatter and fluorescence of single cells or particles in a stream.

Data set [8] has as its system HepG2 cells. Kind of data set: Trypan Blue dye exclusion, HepG2. It counts as cell-based, human. To be noted: HepG2, 24 h, lanuginosine 10 and 20 μg/mL, (+)-xylopine 5 and 10 μg/mL; for number of viable cells: p < 0.05. As for the experimental part: as §2
The test system of data set [9] is HepG2 cells. Put plainly: Internucleosomal DNA fragmentation and cell cycle distribution (flow cytometry, propidium iodide), HepG2. Format: cell-based, human. The note with it: HepG2, 24 h; for Cell Cycle Phases (%) G2/M: NC 19.93 ± 6.12; for Cell Cycle Phases (%) G1: NC 51.50 ± 4.02. As for the experimental part:
as §2
Cells were harvested in a lysis solution containing 0.1% triton X-100 (Sigma Chemical Co., St. Louis, MO, USA), 2 µg/mL propidium iodide (Sigma Chemical Co.), 0.1% sodium citrate and 100 µg/mL RNAse (Sigma Chemical Co.). Cell fluorescence was determined by flow cytometry on a BD LSRFortessa cytometer using BD FACSDiva Software (BD Biosciences) and Flowjo Software 10. Ten thousand events were evaluated per experiment and cellular debris was omitted from the analysis.

Data set [10] relates to HepG2 cells. Kind of data set: Morphological analysis with May-Grünwald-Giemsa staining, HepG2. It counts as cell-based, human. The note with it: HepG2, 24 h; lanuginosine 10 and 20 μg/mL, (+)-xylopine 5 and 10 μg/mL. As for the experimental part:
as §2
To evaluate alterations in morphology, cells were cultured under a coverslip, fixed with methanol for 30 s and stained with May-Grünwald-Giemsa stain. Morphological changes were examined by light microscopy (Olympus BX41, Tokyo, Japan) using Image-Pro software (Media Cybernetics, Rockville, MD, USA).

In data set [11] the test system is HepG2 cells. Kind of data set: Acridine Orange/ethidium bromide staining, fluorescence microscopy, HepG2. Format: cell-based, human. The note with it: HepG2, 24 h, p < 0.05; for number of apoptotic cells (AO/EB): lanuginosine 10 and 20 μg/mL, (+)-xylopine 5 and 10 μg/mL. As for the experimental part: as §2
Cells were pelleted and resuspended in saline (25 μL). Then, 1 μL of aqueous solution of AO/EB (100 μg/mL, Sigma-Aldrich Co.) was added, and the cell viability changes were observed under a fluorescence microscope (Olympus BX41). In this assay, AO permeates all cells and makes the nuclei appear green. EB is only taken up by cells when the cytoplasmic membrane integrity is lost and stains the nucleus red. EB also dominates over AO. Thus, live cells have a normal green nucleus; early apoptotic cells have a bright green nucleus with condensed or fragmented chromatin; late apoptotic cells display condensed and fragmented orange chromatin; cells that have died from direct necrosis have a structurally normal orange nucleus. Three hundred cells were counted per sample and classified as viable, apoptotic or necrotic.

Protocol for in vitro: as §3, §4

`COc1cc2c(cc1OC)-c1c(OC)c(OC)cc3c1C(C2)NCC3` (single isomer, unassigned; (+)) [(+)-Norglaucine, (+)-norglaucine]: the IC50 stood at 6.7 µg/mL in data set [1]; 19.6 µM in data set [1] (value in brackets); 8.48 µg/mL in the data set with B16-F10 (mouse melanoma); 24.8 µM with B16-F10 (mouse melanoma) (value in brackets); 7.84 µg/mL in [2]; 22.9 µM in [2] (value in brackets). In addition, the IC50 is 3.78 µg/mL in [4]; 11 µM in [4] (value in brackets); less than 4 µg/mL in data set [5]; 6.84 µg/mL in data set [6]; 20 µM in [6] (value in brackets). Further, the pro-apoptotic effect result in data set [3] was “no effect was found”. Moreover, the “selectivity index (SI)” value in data set [6] is on record as 1.0.

Regarding `COc1cc2c(cc1OC)-c1c(OC)c(O)cc3c1C(C2)NCC3` (single isomer, unassigned; (+)) [(+)-Norpredicentrine, (+)-norpredicentrine], the IC50 (in [1]; with B16-F10 (mouse melanoma); in data set [2]; in data set [4]; in [6]) was more than 25 µg/mL each time. Further, the IC50 at 72 h in “in vitro” was more than 25 µg/mL.

On to `COc1ccc2c(c1)C[C@@H]1NCCc3cc4c(c-2c31)OCO4` [(+)-Xylopine, (+)-xylopine], for which the IC50 in data set [1] turned out to be 4.08 µg/mL; in data set [1] (value in brackets), 13.8 µM; in the data set with B16-F10 (mouse melanoma) it was 3.77 µg/mL; in the data set with B16-F10 (mouse melanoma) (value in brackets), 12.7 µM; in data set [2] it was 3.12 µg/mL; in data set [2] (value in brackets) it was 10.5 µM. Moreover, the IC50 in [4] was 1.87 µg/mL; in [4] (value in brackets) it was 6.31 µM; in data set [5], less than 4 µg/mL; in data set [6] it was 1.87 µg/mL; in data set [6] (value in brackets) it was 6.31 µM. Besides, in the data set with HepG2 cells [7], the phosphatidylserine exposure result is reported as “significant increase in phosphatidylserine exposure”. Also, in the data set on HepG2 cells [8], the “number of non-viable cells” value is recorded as “without increasing the number of non-viable cells”. Besides, the “number of viable cells” value in the data set with HepG2 cells [8] is “reduce the number of viable cells”. Moreover, the “Cell Cycle Phases (%) S” value in the data set with HepG2 cells [9] (5 µg/mL, NC 16.11 ± 1.89) is listed as 10.80 ± 1.50 %. Moreover, the results for the “Cell Cycle Phases (%) G2/M” value with HepG2 cells [9] (5 µg/mL) and in the data set on HepG2 cells [9] (10 µg/mL) were 64.16 ± 2.56 % and 39.96 ± 9.59 %, respectively. The entries for the “Cell Cycle Phases (%) G1” value with HepG2 cells [9] (5 µg/mL) and in the data set with HepG2 cells [9] (10 µg/mL) were 28.05 ± 3.15 % and 20.43 ± 3.06 %, respectively. Moreover, the “effect on cell cycle distribution” value in the data set on HepG2 cells [9] (5 and 10 μg/mL) is reported as “total number of cells in the G2/M phase increased, indicating cell cycle arrest during this phase”. Further, the “internucleosomal DNA fragmentation (sub-G1)” value with HepG2 cells [9] (5 and 10 μg/mL, p < 0.05) is on record as “increase in the internucleosomal DNA fragmentation”. For the same compound, the cell morphology entry in the data set with HepG2 cells [10] is “morphology consistent with apoptosis, including chromatin condensation and fragmentation of the nuclei”. Also, the “number of apoptotic cells (AO/EB)” value with HepG2 cells [11] is on record as “increased number of apoptotic cells”. Moreover, the “selectivity index (SI)” value in [6] is 2.2.

`COc1ccc2c(c1)C(=O)c1nccc3cc4c(c-2c13)OCO4` [Lanuginosine, lanuginosine]: the IC50 in data set [1] was determined as 24.5 µg/mL; in [1] (value in brackets), 80.1 µM; with B16-F10 (mouse melanoma), 8.46 µg/mL; in the data set with B16-F10 (mouse melanoma) (value in brackets), 27.6 µM; in [2], 6.61 µg/mL; in data set [2] (value in brackets), 21.6 µM. Besides, the IC50 in [4] is 3.89 µg/mL; in data set [4] (value in brackets) it was 12.7 µM; in data set [5] it was less than 4 µg/mL; in data set [6] it was 7.81 µg/mL; in data set [6] (value in brackets), 25.5 µM. For the same compound, the phosphatidylserine exposure result in the data set on HepG2 cells [7] is listed as “significant increase in phosphatidylserine exposure”. For the same compound, the “number of non-viable cells” value in the data set on HepG2 cells [8] is listed as “without increasing the number of non-viable cells”. For the same compound, the “number of viable cells” value in the data set on HepG2 cells [8] is on record as “reduce the number of viable cells”. Further, in the data set with HepG2 cells [10], the cell morphology result was “morphology consistent with apoptosis, including chromatin condensation and fragmentation of the nuclei”. Also, the “percentage of necrotic cells (AO/EB)” value with HepG2 cells [11] (at the higher concentration) is “significantly increased the percentage of necrotic cells”. Also, in the data set with HepG2 cells [11], the “number of apoptotic cells (AO/EB)” value is “increased number of apoptotic cells”. Moreover, the “selectivity index (SI)” value in data set [6] was 3.1.
